Assay results reported in patent US8637038B2, “Methods for inhibiting allograft rejection” (Rigel Pharmaceuticals, Inc., priority 2011, dated 2014).
Read-outs that look alike come from different tables or passages of the source.

Key:
JAK1/Tyk2 = assay: IFN-γ whole blood lymphocytes phospho-STAT1; assay type: cell-based; details: Lymphocyte, read-out: IFN-γ whole blood lymphocytes phospho-STAT1 EC50
Procedure: The activity of Compound III and Compound I was assessed in a panel of cell-based assays. Compound III and Compound I are selective inhibitors of JAK1/3-dependent signaling. Data for a non-selective JAK inhibitor (Compound IV) is shown for reference. Mixed lymphocyte reactions (MLRs) were performed by incubating freshly prepared naive human peripheral blood lymphocytes from one donor with CD80+/CD86+ mature Dendritic Cells derived from a different donor for 5 days. The percentage of CD3+/CD71+ (anti-CD3-APC, Clone HIT3a, anti-CD 71-FITC, Clone M-A712; BD Biosciences, San Jose, Calif.) proliferating cells was assessed by fluorescence-activated cell sorting (FACS; BD Bioscience). Interleukin-2 (IL-2)-dependent human primary T cell proliferation was assessed using CellTiter-Glo® Luminescent Cell Viability Assay (Promega, Madison, Wis.). STAT phosphorylation induced by different cytokines in human primary T cells was measured by intracellular FACS analysis (anti-pY694-STAT5 AlexaFluor488, anti-pY701-STAT1 AlexaFluor488, and anti-pY693-STAT4 AlexaFluor488; BD Biosciences). […] Interferon-γ (IFN-γ) signaling was assessed in the U937 monocytic cell line by measuring ICAM-1 surface expression by FACS (ICAM-1-APC, BD Bioscience).

INSR = assay: Insulin HeLa phospho-Akt; assay type: cell-based; details: upstream kinase INSR
Procedure: Growth factor-dependent protein phosphorylation was detected in HeLa cells by staining permeabilized cells with phospho-specific antibodies and quantified by chemiluminescence (Luminator, Wallac Multilabel Counter; Perkin Elmer). Akt phosphorylation was measured following insulin stimulation and EGFR phosphorylation was measured following EGF stimulation (Phospho-AKT, Cell signaling technology, Danvers, Mass.; 1 μM Insulin, Millipore, Billerica, Mass.; Phospho-EGFR, tyr1173, clone 53A3, Cell Signaling Technology; 200 ng/ml recombinant human EGF, PeproTech, Hamburg, Germany). Human umbilical vein endothelial cells (HUVECs) were stimulated with VEGF and VEGFR2 phosphorylation was assessed by ELISA (100 ng/ml VEGF165, R&D Systems; Rabbit anti-phospho-VEGFR2 mAb, Cell Signaling Technology).

[1] = test system: Lew recipients of heterotopic BN heart transplants; assay: Five-day heart allograft study: ELISPOT (IFN-γ, IL-4, IL-17) of recipient splenocytes; assay type: in vivo, rat; details: for IFN-γ spot frequency (ELISPOT) compared to no medication group: LD groups (Compound I 15 mg/kg BID, Compound III 5 mg/kg BID, Tac 1 mg/kg QD), five days; for suppression of IFN-γ response to donor-specific antigens compared to Tac LD treatment: LD groups
Procedure: Compound I and Compound III were provided by Rigel (South San Francisco, Calif.) and Tacrolimus was provided by Astellas (Munich, Germany). All drugs were administrated orally each in two different concentrations: Compound I LD (15 mg/kg BID; n=6) and HD (60 mg/kg BID; n=6); Compound III LD (5 mg/kg BID; n=6) and HD (20 mg/kg BID; n=6); Tac LD (1 mg/kg QD; n=6) and HD (4 mg/kg QD; n=6). Administration of all drugs was performed every day at the same time points. Tacrolimus was applied only once a day (QD) every 24 hours. During administration of Compound I (BID) and Compound III (BID) a 12 hour pause was kept in between each drug application.
Lew recipients of heterotopic BN heart transplants were randomly assigned to their group. Animals were either left untreated (groups 1 and 2; see Table 1,5-day study) or received their group specific medication (groups 3-8; see Table 1,5-day study) by oral application. An untreated syngeneic transplant group Lew-Lew was generated as control.
Lymphocytes were isolated from freshly harvested spleens. ELISPOT assays with 1×10^7/ml mitomycin-inhibited BN splenocytes and 1×10^6/ml Lew splenocytes were performed according to the manufacturer's protocol (BD Biosciences). 96-well plates were coated with IFN-γ, IL-17, and IL-4 to assess T helper cell (Th)1-, Th17-, and Th2-responses independently. All assays were performed in quadruplicates. Spots were automatically enumerated using an ELISPOT plate reader (CTL, Cincinnati, Ohio) for scanning and analyzing.

[2] = test system: Lew recipients of heterotopic BN heart transplants; assay: Five-day heart allograft study: H+E histology, ISHLT rejection classification; assay type: in vivo, rat; details: HD (Compound I 60 mg/kg BID, Compound III 20 mg/kg BID, Tac 4 mg/kg QD); five days after transplantation
Text: Male Brown Norway (BN) and Lewis (Lew) rats weighing 350 g were purchased from Harlan (Indianapolis, Ind.) and were housed under conventional conditions. All animals were fed standard rat chow and water ad libitum and received humane care in compliance with the Principles of Laboratory Animal Care formulated by the National Society for Medical Research and the Guide for the care and Use of Laboratory Animals published by the National Institutes of Health (National Institutes of Health publication No. 85-23, revised 1985). Allogeneic (BN-to-Lew) and syngeneic (Lew-to-Lew) heterotopic heart transplantations were performed as described previously (Ono et al., J. Thorac. Cardiovasc. Surg. 57:225-229, 1969). In brief, rats were anaesthetized using 2% isoflurane. The donor received an intravenous bolus of 500 I.U. heparin. Cardiac arrest was achieved using 20 ml Bretschneider solution (Custodiol, Dr. F. Koehler Chemie, Bensheim, Germany). […] Heart-beating score was assessed directly after transplantation for each animal from score 0 (no palpable contraction) to 4 (strong and regular contraction). Only animals with beating scores of 4 were included into the study. Compound I and Compound III were provided by Rigel (South San Francisco, Calif.) and Tacrolimus was provided by Astellas (Munich, Germany). All drugs were administrated orally each in two different concentrations: Compound I LD (15 mg/kg BID; n=6) and HD (60 mg/kg BID; n=6); […] Administration of all drugs was performed every day at the same time points. Tacrolimus was applied only once a day (QD) every 24 hours. During administration of Compound I (BID) and Compound III (BID) a 12 hour pause was kept in between each drug application. Lew recipients of heterotopic BN heart transplants were randomly assigned to their group. […] An untreated syngeneic transplant group Lew-Lew was generated as control. Grafts were recovered five days after transplantation and fixed in 4% paraformaldehyde (Science Services, Munich, Germany), dehydrated and embedded in paraffin. […] Waldeck, Carl Roth GmbH, Munster, Germany) and examined by standard light microscopy. The extent of acute cardiac graft rejection in H+E staining was examined by an experienced pathologist according to the 2004 ISHLT working formulation (Stewart et al., J. Heart Lung Transplant. 24:1710-1720, 2005).

| SMILES | EC50 (JAK1/Tyk2) [nM] | Insulin HeLa phospho-Akt EC50 (INSR) | IFN-γ spot frequency compared to Tac HD group ([1]; Compound III LD 5 mg/kg BID, p<0.05) | IFN-γ spot frequency (ELISPOT) compared to no medication group [1] | suppression of IFN-γ response to donor-specific antigens compared to Tac LD treatment ([1]; p<0.001) | hearts with ISHLT score of 0 [2] [%] | hearts with ISHLT score of 1 [2] [%] | hearts with ISHLT score of 2 [2] [%] | hearts with ISHLT score of 3 [2] | EC50 (JAK1/Tyk2; whole blood, JAK1/Tyk2) [nM] | IL-17 cytokine release (ELISPOT) compared to no medication group ([1]; HD 60 mg/kg BID, p<0.010) | IL-17 cytokine release (ELISPOT) compared to no medication group ([1]; LD 15 mg/kg BID, p<0.001) | IL-17 spot frequency compared to Tac LD ([1]; LD 15 mg/kg BID, p<0.001) |
| --- | --- | --- | --- | --- | --- | --- | --- | --- | --- | --- | --- | --- | --- |
| COc1cc(Nc2ncc(C)c(Nc3ccc4oc(=O)[nH]c4c3)n2)cc(C)c1C [Compound III, 5-(2-(3-methoxy-4,5-dimethylphenylamino)-5-methylpyrimidin-4-ylamino)benzol[d]oxazol-2-(3H)-one] | 511 ± 279 | Inactive | less IFN-γ spot frequency | significantly reduced | significantly better results | 33 | 50 | 17 | no scores of 3 | – | – | – | – |
| COc1cc(Nc2ncc(C)c(Nc3ccc4oc(=O)[nH]c4c3)n2)cc(C)c1F [Compound I, 5-(2-(4-fluoro-3-methoxy-5-methylphenylamino)-5-methylpyrimidin-4-ylamino)benzo[d]oxazol-2(3H)-one] | – | Inactive | – | significantly reduced | significantly better results | 17 | 50 | 17 | 17% | 153 ± 33 | significantly suppressed | significantly suppressed | significantly less spot frequency |
